SMILES strings stand for the structures.

In general, EC50 refers to the midpoint of the concentration-response curve.

In the test the test system is PBMCs infected with VSV-G pseudotyped HIV virus (VSV-G/pNLGI-P2A-ΔEnv). In words: cells. The test is classed as cell-based. To be noted: Homo sapiens, PBMC, read-out: TACK EC50 (nM).
Regarding `COc1cc(=O)n(Cc2cc3c(cc2Cl)[C@@](C#CC2CC2)(C(C)(F)F)OC(=O)N3)cn1` [Example 13, (S)-6-chloro-4-(cyclopropylethynyl)-4-(1,1-difluoroethyl)-7-((4-methoxy-6-oxopyrimidin-1(6H)-yl)methyl)-1,4-dihydro-2H-benzo[d][1,3]oxazin-2-one], the EC50 came to 11 nM. As for `COc1cc(=O)n(Cc2cc3c(cc2Cl)[C@@](C#CC2CC2)(C(F)(F)F)OC(=O)N3)cn1` [Example 14, (S)-6-chloro-4-(cyclopropylethynyl)-7-((4-methoxy-6-oxopyrimidin-1(6H)-yl)methyl)-4-(trifluoromethyl)-1,4-dihydro-2H-benzo[d][1,3]oxazin-2-one], the figure is 63 nM. Turning to `O=C1Nc2cc(Cn3cnccc3=O)c(Cl)cc2[C@@](C#CC2CC2)(C(F)(F)F)O1` [Example 15, (S)-6-chloro-4-(cyclopropylethynyl)-7-((6-oxopyrimidin-1(6H)-yl)methyl)-4-(trifluoromethyl)-1,4-dihydro-2H-benzo[d][1,3]oxazin-2-one], the EC50 came to 63 nM.

Turning to `Nc1nccn(Cc2cc3c(cc2Cl)[C@@](C#CC2CC2)(C(F)(F)F)OC(=O)N3)c1=O` [Example 16, (S)-7-((3-amino-2-oxopyrazin-1(2H)-yl)methyl)-6-chloro-4-(cyclopropylethynyl)-4-(trifluoromethyl)-1,4-dihydro-2H-benzo[d][1,3]oxazin-2-one], the concentration for a half-maximal effect (EC50) was 113 nM. As for `Cc1cc(=O)n(Cc2cc3c(cc2Cl)[C@@](C#CC2CC2)(C(F)(F)F)OC(=O)N3)cn1` [Example 17, (S)-6-chloro-4-(cyclopropylethynyl)-7-((4-methyl-6-oxopyrimidin-1(6H)-yl)methyl)-4-(trifluoromethyl)-1,4-dihydro-2H-benzo[d][1,3]oxazin-2-one], the figure is 92 nM; as for `O=C1Nc2cc(Cn3cnc(C(F)F)cc3=O)c(Cl)cc2[C@@](C#CC2CC2)(C(F)(F)F)O1` [Example 18, (S)-6-chloro-4-(cyclopropylethynyl)-7-((4-(difluoromethyl)-6-oxopyrimidin-1(6H)-yl)methyl)-4-(trifluoromethyl)-1,4-dihydro-2H-benzo[d][1,3]oxazin-2-one], 83 nM.

With `COCc1cc(=O)n(Cc2cc3c(cc2Cl)[C@@](C#CC2CC2)(C(F)(F)F)OC(=O)N3)cn1` [Example 19, (S)-6-chloro-4-(cyclopropylethynyl)-7-((4-(methoxymethyl)-6-oxopyrimidin-1(6H)-yl)methyl)-4-(trifluoromethyl)-1,4-dihydro-2H-benzo[d][1,3]oxazin-2-one], the 50% effective concentration (EC50) came to 128 nM.

As for `CC(F)(F)[C@@]1(C#CC2CC2)OC(=O)Nc2cc(Cn3cncc(N)c3=O)c(F)cc21` [Example 20, (S)-7-((5-amino-6-oxopyrimidin-1(6H)-yl)methyl)-4-(cyclopropylethynyl)-4-(1,1-difluoroethyl)-6-fluoro-1,4-dihydro-2H-benzo[d][1,3]oxazin-2-one], the EC50 worked out at 11 nM. As for `CC(F)(F)[C@@]1(C#CC2CC2)OC(=O)Nc2cc(Cn3ccnc(N)c3=O)c(F)cc21` [Example 21, (S)-7-((3-amino-2-oxopyrazin-1(2H)-yl)methyl)-4-(cyclopropylethynyl)-4-(1,1-difluoroethyl)-6-fluoro-1,4-dihydro-2H-benzo[d][1,3]oxazin-2-one], the figure is 12 nM. As for `CC(F)(F)[C@@]1(C#CC2CC2)OC(=O)Nc2cc(Cn3cnccc3=O)c(F)cc21` [Example 22, (S)-4-(cyclopropylethynyl)-4-(1,1-difluoroethyl)-6-fluoro-7-((6-oxopyrimidin-1(6H)-yl)methyl)-1,4-dihydro-2H-benzo[d][1,3]oxazin-2-one], the figure is 12 nM; as for `COCc1cc(=O)n(Cc2cc3c(cc2F)[C@@](C#CC2CC2)(C(C)(F)F)OC(=O)N3)cn1` [Example 23, (S)-4-(cyclopropylethynyl)-4-(1,1-difluoroethyl)-6-fluoro-7-((4-(methoxymethyl)-6-oxopyrimidin-1(6H)-yl)methyl)-1,4-dihydro-2H-benzo[d][1,3]oxazin-2-one], 16 nM.

The values above are taken from patent US20240409531A1, “BENZOXAZINONE DERIVATIVES AS SELECTIVE CYTOTOXIC AGENTS” (Merck Sharp & Dohme LLC, priority 2021, published 2024).
